Measured values reported in patent US6670366B1, “Pyrazolopyrimidinone cGMP PDE5 inhibitors for the treatment of sexual dysfunction” (Pfizer Inc, priority 1998, dated 2003).

Target: cGMP PDE5 (UniProt O76074)
Test: In vitro PDE inhibitory activity against cGMP PDE5
Assay type: biochemical, human or rabbit
Conditions: concentration of compound required for 50% inhibition of enzyme activity, read-out: IC50 as inhibitors of cGMP PDE5
Procedure: In vitro PDE inhibitory activities against cyclic guanosine 3′,5′-monophosphate (cGMP) and cyclic adenosine 3′,5′-monophosphate (cAMP) phosphodiesterases were determined by measurement of their IC50 values (the concentration of compound required for 50% inhibition of enzyme activity).
The required PDE enzymes were isolated from a variety of sources, including human corpus cavernosum, human and rabbit platelets, human cardiac ventricle, human skeletal muscle and bovine retina, essentially by the method of W. J. Thompson and M. M. Appleman (Biochem., 1971, 10, 311). In particular, the cGMP-specific PDE (PDE5) and the cGMP-inhibited cAMP PDE (PDE3) were obtained from human corpus cavernosum tissue, human platelets or rabbit platelets; the cGMP-stimulated PDE (PDE2) was obtained from human corpus cavernosum; the calcium/calmodulin (Ca/CAM)-dependent PDE (PDE1) from human cardiac ventricle; the cAMP-specific PDE (PDE4) from human skeletal muscle; and the photoreceptor PDE (PDE6) from bovine retina.
Assays were performed using modification of the “batch” method of W. J. Thompson et al. (Biochem., 1979, 18, 5228).

| IC50 [nM] | Compound |
| --- | --- |
| 9.7 | CCCc1c2nc(-c3cc(S(=O)(=O)N(C)C)cnc3OCC)[nH]c(=O)c2nn1Cc1ccccn1 [Example 19, 5-[5-(N,N-Dimethylaminosulfonyl)-2-ethoxypyridin-3-yl]-3-n-propyl-2-(pyridin-2-yl)methyl-2,6dihydro-7H-pyrazolo[4,3-d]pyrimidin-7-one] |
| 14 | CCCOc1ccc(S(=O)(=O)NC2CCN(C(=O)OCC)CC2)cc1-c1nc2c(CCC)n(Cc3ccccn3)nc2c(=O)[nH]1 [Example 10] |
| 8.5 | CCCOc1ncc(S(=O)(=O)NCCN(C)C)cc1-c1nc2c(CCC)n(Cc3ccccn3)nc2c(=O)[nH]1 [Example 20, 5-(5-[(3-N,N-Dimethylamino)-1-ethylaminosulfonyl]-2-n-propoxypyridin-3-yl)-3-n-propyl-2-(pyridin-2-yl)methyl-2,6-dihydro-7H-pyrazolo[4,3-d]pyrimidin-7-one] |
| 16.4 | CCCOc1ccc(S(=O)(=O)N2CC(O)C2)cc1-c1nc2c(CCC)n(Cc3ccccn3)nc2c(=O)[nH]1 [Example 8] |
| 26.6 | CCOc1ccc(S(=O)(=O)N2CCC(CC)CC2)cc1-c1nc2c(CC)n(Cc3ccccn3)nc2c(=O)[nH]1 [Example 4] |
| 10.3 | CCc1c2nc(-c3cc(S(=O)(=O)N4CCC(CC)CC4)cnc3OCCOC)[nH]c(=O)c2nn1Cc1ccccn1 [Example 22] |
